Source: the NIST ThermoML archive (doi:10.1016/j.jct.2017.03.006)
± gives the expanded uncertainty stated by the source.

Assay: xn = mol fraction of the nth substance listed
Settings: 333.15 K, Liquid, Vibrating tube method

Cc1ccc(C)c(C)c1 [1,2,4-trimethylbenzene] + CCC(C)O
mass density [kg/m3]
Settings	x2 = 0	x2 = 0.1	x2 = 0.1989	x2 = 0.3011	x2 = 0.4002	x2 = 0.5001	x2 = 0.5997	x2 = 0.6999	x2 = 0.7999	x2 = 0.9
40000 kPa	–	–	–	–	–	–	–	–	819.7 ± 0.8	812.1 ± 0.8
50000 kPa	877.4 ± 0.8	871.2 ± 0.8	865.3 ± 0.8	859.2 ± 0.8	853.2 ± 0.8	847.6 ± 0.8	840.5 ± 0.8	833.4 ± 0.8	826.3 ± 0.8	818.7 ± 0.8
60000 kPa	883 ± 0.8	876.9 ± 0.8	871.1 ± 0.8	865.1 ± 0.8	859.1 ± 0.8	853.7 ± 0.8	846.6 ± 0.8	839.5 ± 0.8	832.5 ± 0.8	824.9 ± 0.8
70000 kPa	888.2 ± 0.8	882.5 ± 0.8	876.6 ± 0.8	870.6 ± 0.8	864.8 ± 0.8	859.3 ± 0.8	852.3 ± 0.8	845.3 ± 0.8	838.4 ± 0.9	830.7 ± 0.9
80000 kPa	893.2 ± 0.8	887.6 ± 0.8	881.9 ± 0.8	875.9 ± 0.8	870.1 ± 0.8	864.7 ± 0.8	857.8 ± 0.9	850.8 ± 0.9	843.7 ± 0.9	836.2 ± 0.9
90000 kPa	898 ± 0.8	892.5 ± 0.8	886.9 ± 0.8	881 ± 0.8	875.2 ± 0.9	869.8 ± 0.9	862.9 ± 0.9	856 ± 0.9	849 ± 0.9	841.4 ± 0.9
100000 kPa	902.5 ± 0.8	897.2 ± 0.8	891.7 ± 0.8	885.8 ± 0.9	880 ± 0.9	874.7 ± 0.9	867.9 ± 0.9	860.9 ± 0.9	853.9 ± 0.9	846.4 ± 0.9
110000 kPa	906.9 ± 0.8	901.8 ± 0.8	896.2 ± 0.9	890.5 ± 0.9	884.7 ± 0.9	879.4 ± 0.9	872.6 ± 0.9	865.7 ± 0.9	858.7 ± 1	851.2 ± 1
120000 kPa	911.1 ± 0.8	906.1 ± 0.8	900.7 ± 0.9	894.8 ± 0.9	889.1 ± 0.9	883.9 ± 0.9	877.1 ± 0.9	870.2 ± 0.9	863.2 ± 1	855.7 ± 1
130000 kPa	915.1 ± 0.8	910.3 ± 0.9	904.9 ± 0.9	899.1 ± 0.9	893.4 ± 0.9	888.2 ± 0.9	881.5 ± 0.9	874.5 ± 1	867.5 ± 1	860.1 ± 1
140000 kPa	919 ± 0.8	914.3 ± 0.9	909.1 ± 0.9	903 ± 0.9	897.5 ± 0.9	892.2 ± 0.9	885.9 ± 1	878.5 ± 1	871.5 ± 1	864 ± 1
